What was measured:
[1] = tested on: synthetic peptide with a HIV-1 CCHC zinc finger; conditions: cited from earlier work
HIV-1 = conditions: cited from earlier work
[2] = tested on: recombinant HIV-1 NC protein; experiment: Surface plasmon resonance (BIAcore) binding of NC to immobilized biotinylated oligonucleotides; conditions: for NC binding to oligonucleotide (level and stability during washout): oligonucleotide on chip, 0.15M NaCl; for affinity for HIV-1 NC protein: oligonucleotides including the subsequence
Procedure: In a preferred embodiment, the assay format is surface plasmon resonance (SPR). The Kd and kinetics of the trial compound-protein interaction are determined in a BIAcore, a biosensor based on surface plasmon resonance. For this technique, protein or trial compound is coupled to a derivatized sensor chip capable of detecting changes in mass. When trial compound or protein is passed over the sensor chip, it binds to the trial compound or protein coupled to the chip, resulting in an increase in mass which is quantifiable. Measurement of the rate of association as a function of trial compound or protein concentration can be used to calculate the association rate constant (kon). After the association phase, buffer is passed over the chip and the rate of dissociation (koff) is determined. Kon is typically measured in the range 1.0×10^2 to 5.0×10^6 and koff in the range 1.0×10^-1 to 1.0×10^-6. The equilibrium constant Kd is often calculated as koff/kon and thus is typically measured in the range 10^-5 to 10^-12. Affinities measured in this manner correlate well with affinities measured in solution by fluorescence quench titration. See, Fisher and Fivash (1994) Curr. Opin. Biotechnol. 5:389-395; Fisher et al. (1994) Methods 6:389-395; Johnsson et al., (1991) Anal. Biochem., 198:268-277; Karlsson et al., (1991) J. Immunol. Methods., 145:229-240; and Johnsson et al., (1991) Anal. Biochem. 198:268-277.
NC has traditionally been described as a single-stranded nucleic acid-binding protein. To determine whether this conclusion is accurate under SPR conditions, we initially measured binding of recombinant HIV-1 NC to a single-stranded 28-base oligodeoxynucleotide. The sequence of this oligonucleotide contains 20 bases from the 3' end of HIV-1 proviral DNA (i.e., the 3' end of U5). Surface plasmon resonance (SPR) analysis was performed with biotinylated DNA immobilized at its 3' end.
This possibility was analyzed systematically in the following experiment. Four SPR chips were made containing TGTG (SEQ ID NO:3) at different densities. For each chip, the amount of streptavidin (which holds the biotinylated oligonucleotide on the chip) was measured by SPR analysis before the addition of TGTG (SEQ ID NO:3). The amount of TGTG (SEQ ID NO:3) added to each chip was then quantitated by SPR. Thus, for each chip the ratio of TGTG (SEQ ID NO:3) to streptavidin was empirically determined. Since a streptavidin molecule has four binding sites for biotinylated ligands, the number of streptavidin molecules occupied by 0, 1, 2, 3, or 4 oligonucleotides could be calculated from this ratio, using binomial expansion. Finally, the ability of each chip to bind NC with high affinity was determined by SPR.
Another important aspect of the experiments described here is that the analyses were performed in 0.15M NaCl. The sequence-independent electrostatic interaction between the positively charged NC protein and nucleic acids is obviously much lower at this moderate ionic strength than in more dilute buffers, so that the differences in affinity for different oligonucleotides are more apparent. […] The additional affinity of NC for a preferred sequence was shown by this analysis to be largely hydrophobic.

HIV-1 NC protein = experiment: Tryptophan fluorescence titration of NC with oligonucleotide, then NaCl dissociation; assay type: binding; conditions: for apparent affinity of NC: fluorescence; for hydrophobic component, apparent affinity constant at 1M NaCl (K°) / K° relative to expected value (weighted average of corresponding homopolymers): 1M NaCl
[3] = tested on: "finger swap" mutants of NC (1.1, 2.2, 2.1); experiment: SPR binding of "finger swap" mutant NC proteins to the 5' site; design: species or system HIV-1
[4] = tested on: 2.2 finger swap mutant protein; experiment: Fluorescence binding of 2.2 finger swap mutant protein; design: species or system HIV-1; conditions: versus wild-type protein
[5] = target: T1, HIV-1 nucleocapsid protein (NC), wild type (Human immunodeficiency virus 1, UniProt P12493 P12493:378-432); experiment: SPR; 0.15 M NaCl; tight binding mode (slow washout); conditions: label: biotin (SPR)
[6] = target: T1, HIV-1 nucleocapsid protein (NC), wild …; experiment: SPR; 0.15 M NaCl; second independent mode (fast-released fraction); conditions: label: biotin (SPR)
[7] = target: T1, HIV-1 nucleocapsid protein (NC), wild …; experiment: SPR; negligible binding; conditions: label: biotin
[8] = target: T1, HIV-1 nucleocapsid protein (NC), wild …; experiment: SPR; 0.15 M NaCl; most stable of three subsites; relatively high affinity also by fluorescence; conditions: label: biotin
[9] = target: T1, HIV-1 nucleocapsid protein (NC), wild …; experiment: SPR; TGTG sufficient for high-affinity binding in A context; conditions: label: biotin
[10] = target: T1, HIV-1 nucleocapsid protein (NC), wild …; experiment: SPR; conditions: label: 3'-biotin
[11] = target: T1, HIV-1 nucleocapsid protein (NC), wild …; experiment: SPR; four NC per oligo; conditions: label: biotin
[12] = target: T1, HIV-1 nucleocapsid protein (NC), wild …; experiment: SPR; higher level and slower washout than site I DNA
[13] = target: T1, HIV-1 nucleocapsid protein (NC), wild …; experiment: SPR; two NC per oligo; conditions: label: biotin
[14] = target: T1, HIV-1 nucleocapsid protein (NC), wild …; experiment: SPR; TGTG replaced by AAAA; no high-affinity binding; conditions: label: biotin
[15] = quantitative analysis of SPR data

NC(=O)c1cccc(N=O)c1 [NOBA, 3-nitroso benzamide]
effect on zinc of zinc finger peptide [1]: loss of zinc
effect on virus (HIV-1): viral inactivation

(TG)5
number of NC molecules bound per oligonucleotide ([2]; SPR): two

(TG)10
number of NC molecules bound per oligonucleotide ([2]; SPR): four

(dT)9
hydrophobic component, apparent affinity constant at 1M NaCl (K°) (HIV-1 NC protein): 5×10^1

AAAATCTCTA [site II]
NC binding to oligonucleotide (level and stability during washout) ([2]; SPR): negligible binding

AAAATGTGAA
NC binding to oligonucleotide (level and stability during washout) ([2]; SPR): binding

GACTTGTGG [Site I]
dependence of binding on oligonucleotide density ([2]; SPR): essentially independent
NC binding to oligonucleotide (level and stability during washout) ([2]; SPR): most stable binding
apparent affinity of NC (HIV-1 NC protein): relatively high affinity
binding of mutant proteins [3]: some binding
washout of mutant proteins ([3]; versus wild-type protein): washed out considerably faster than the wild-type protein
apparent affinity of 2.2 mutant [4]: lower apparent affinity than that of wild-type protein

GACTTGTGGA
affinity for HIV-1 NC protein [2]: nanomolar range

GACUUGUGG (chemistry not given here)
NC binding to oligonucleotide (level and stability during washout) ([2]; SPR): at a higher level and washes out more slowly than the binding to the DNA
affinity for HIV-1 NC protein [2]: nanomolar range

GCAGTGCAT [site III]
NC binding to oligonucleotide (level and stability during washout) ([2]; SPR): significant binding, but at a lower level and a more rapid loss during the washout than was observed with site I

GTGTG
number of NC molecules bound per oligonucleotide ([2]; SPR): single
NC binding to oligonucleotide (level and stability during washout) ([2]; SPR): high-affinity binding sites

TGTG (DNA, backbone not given here)
high-affinity binding of NC ([2]; highest oligonucleotide density on chip (FIG. 6D)): high-affinity binding is achieved
initial binding of NC ([2]; oligonucleotide at low density (FIG. 6A)): substantial degree of initial binding

TGTGT
number of NC molecules bound per oligonucleotide ([2]; SPR): single
NC binding to oligonucleotide (level and stability during washout) ([2]; SPR): high-affinity binding sites

TGTGTG
affinity for HIV-1 NC protein [2]: nanomolar range

TGTGTGTG [d(TG)4]
dependence of binding on oligonucleotide density ([2]; SPR): essentially independent
number of NC molecules bound per oligonucleotide ([2]; SPR): one
Ka, binding system released more rapidly during washout [2, 15]: 1×10^7
Ka, binding system responsible for slow washout [2, 15]: 2e+09 M⁻¹
K° relative to expected value (weighted average of corresponding homopolymers) (HIV-1 NC protein): 145 times
hydrophobic component, apparent affinity constant at 1M NaCl (K°) (HIV-1 NC protein): 2.3×10^4
difference in binding energy (HIV-1 NC protein; d(TG)4 versus d(IT)4, inferred from difference in affinity): ~ 1 kcal/mole
apparent affinity of NC (HIV-1 NC protein): highest affinity

d(G)9
extent of binding and retention of NC during washout relative to site 1 ([2]; SPR): far lower than seen with site 1 sequences
NC binding to oligonucleotide (level and stability during washout) ([2]; SPR): clear preference
apparent affinity of NC (HIV-1 NC protein): higher than that for the other hompolymeric oligodeoxynucleotides

d(GA)4
K° relative to expected value (weighted average of corresponding homopolymers) (HIV-1 NC protein): coincided with the value that would be predicted

d(IT)4
K° relative to expected value (weighted average of corresponding homopolymers) (HIV-1 NC protein): 10 times

d(T)10
NC binding to oligonucleotide (level and stability during washout) ([2]; SPR): detectable binding

TGTGTGTG (ssDNA) [d(TG)4]
Ka [5]: 2e+09 M⁻¹
Ka [6]: 1e+07 M⁻¹

AAAATCTCTA (ssDNA) [site II]
binding result [7]: no binding

GACTTGTGG (ssDNA) [site I]
binding result [8]: binds

AAAATGTGAA (ssDNA)
binding result [9]: binds

GACTTGTGGAAAATCTCTAGCAGTGCAT (ssDNA) [28-mer ss oligodeoxynucleotide (HIV-1 U5 3' end)]
binding result [10]: binds

TGTGTGTGTGTGTGTGTGTG (ssDNA) [(TG)10]
binding result [11]: binds

GACUUGUGG (ssRNA) [site I RNA]
binding result [12]: binds

TGTGTGTGTG (ssDNA) [(TG)5]
binding result [13]: binds

GACTAAAAGA (ssDNA)
binding result [14]: no binding

Reference: patent US6316190A (The United States of America as represented by the …)
